Measured values taken from ChEMBL document CHEMBL1201862, “PubChem BioAssay data set” (2004).
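Interpolation was linear, between the two tested concentrations surrounding the appropriate level; five concentrations were tested over 48 hours in 96-well plates. GI50: concentration for 50% inhibition of growth.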 Calls of active or inactive are those of the source. Cut-off read from the data, not from the text of the source: active = GI50 up to about 1.1 µM and inactive = higher.

Columns and labels:
Assay in all cases: NCI anticancer screen, dose series, 48 h
A498 = tested on: A498
A549 = tested on: A549
CCRF-CEM = tested on: CCRF-CEM
COLO 205 = tested on: COLO 205
HL-60 = tested on: HL-60
LOX IMVI = tested on: LOX IMVI
NCI-H226 = tested on: NCI-H226
NCI-H23 = tested on: NCI-H23
NCI-H522 = tested on: NCI-H522
OVCAR-3 = tested on: OVCAR-3
OVCAR-4 = tested on: OVCAR-4
OVCAR-8 = tested on: OVCAR-8
RPMI-8226 = tested on: RPMI-8226
RXF 393 = tested on: RXF 393
SF-539 = tested on: SF-539
SK-MEL-2 = tested on: SK-MEL-2
SN12C = tested on: SN12C
SW-620 = tested on: SW-620
UACC-257 = tested on: UACC-257
MDA-MB-435 = tested on: MDA-MB-435

Measured: GI50

Cc1ccc(N(C(=O)CC(=O)N2N=C(c3ccccc3)C(/N=N/c3ccc([N+](=O)[O-])cc3)C2=O)C(=O)c2ccc(Cl)cc2)cc1 (configuration not stated)
inactive: A498 6.14 µM | A549 22.7 µM | CCRF-CEM 5.27 µM | COLO 205 5.31 µM | HL-60 19.2 µM | LOX IMVI 3.7 µM | NCI-H226 20.7 µM | NCI-H23 5.98 µM | NCI-H522 3.65 µM | OVCAR-3 24 µM | OVCAR-4 36.1 µM | OVCAR-8 18.1 µM | RPMI-8226 21.1 µM | RXF 393 5.16 µM | SF-539 19.8 µM | SK-MEL-2 > 38.8 µM | SN12C 18.5 µM | SW-620 21.6 µM | UACC-257 30.9 µM

O=C(Cc1ccccc1)NN1C(=O)C(Cl)C1c1cccc([N+](=O)[O-])c1 (configuration not stated)
inactive: A498 > 100 µM | A549 > 100 µM | CCRF-CEM 2.33 µM | COLO 205 > 100 µM | HL-60 10.4 µM | LOX IMVI 5.31 µM | NCI-H226 > 42.9 µM | NCI-H23 26.4 µM | NCI-H522 1.91 µM | OVCAR-3 43.4 µM | OVCAR-4 29.8 µM | OVCAR-8 27.9 µM | RPMI-8226 16.6 µM | RXF 393 25.6 µM | SF-539 80 µM | SK-MEL-2 31.7 µM | SN12C 38.8 µM | SW-620 27.6 µM | UACC-257 36.6 µM

O=c1[nH]c2nc3ccccc3c(=O)n2/c1=C/c1cccs1
inactive: A549 > 100 µM | CCRF-CEM > 100 µM | COLO 205 > 100 µM | HL-60 > 100 µM | LOX IMVI > 100 µM | MDA-MB-435 > 100 µM | NCI-H226 > 100 µM | NCI-H23 > 100 µM | NCI-H522 > 100 µM | OVCAR-3 > 100 µM | OVCAR-4 > 100 µM | OVCAR-8 > 100 µM | RPMI-8226 > 100 µM | RXF 393 > 100 µM | SF-539 > 100 µM | SK-MEL-2 > 100 µM | SN12C > 100 µM | SW-620 > 100 µM | UACC-257 > 100 µM

c1ccc(C2SCc3nc4cc5ccccc5cc4n32)cc1 (configuration not stated)
inactive: A549 > 100 µM | CCRF-CEM > 100 µM | COLO 205 > 100 µM | LOX IMVI > 100 µM | MDA-MB-435 > 100 µM | NCI-H226 > 100 µM | NCI-H23 > 100 µM | OVCAR-3 > 100 µM | OVCAR-4 89.3 µM | OVCAR-8 > 100 µM | RPMI-8226 > 100 µM | RXF 393 > 100 µM | SF-539 > 100 µM | SK-MEL-2 > 100 µM | SN12C > 100 µM | SW-620 > 100 µM | UACC-257 > 100 µM

Cc1c(Cl)c(=O)oc2cc(OCC(O)COC(C)C)ccc12 (configuration not stated)
inactive: A549 42.2 µM | CCRF-CEM 34.3 µM | COLO 205 14 µM | HL-60 22.1 µM | LOX IMVI 35 µM | MDA-MB-435 60.3 µM | NCI-H23 > 100 µM | NCI-H522 > 100 µM | OVCAR-3 97.5 µM | OVCAR-4 38.9 µM | OVCAR-8 33.7 µM | RPMI-8226 50.6 µM | SK-MEL-2 30.3 µM | SW-620 34.4 µM | UACC-257 74 µM

COc1ccc(C(=O)/C=C/c2ccc(OCC#N)cc2)cc1
inactive: A498 30.6 µM | A549 28.5 µM | CCRF-CEM 23.2 µM | COLO 205 21.7 µM | MDA-MB-435 24.7 µM | NCI-H226 24.7 µM | NCI-H23 21.3 µM | NCI-H522 18.1 µM | OVCAR-3 30.8 µM | OVCAR-4 32.7 µM | OVCAR-8 34.5 µM | RXF 393 16.3 µM | SF-539 20.4 µM | SN12C 19.9 µM | SW-620 17.3 µM | UACC-257 38.9 µM

CCC(C)C(C(=O)N/N=C1/SCC(=O)N1c1ccccc1)C(=O)N/N=C1/SCC(=O)N1c1ccccc1 (configuration not stated)
inactive: A549 > 100 µM | CCRF-CEM 46.1 µM | COLO 205 > 100 µM | HL-60 > 100 µM | LOX IMVI 38.4 µM | MDA-MB-435 17.9 µM | NCI-H23 36.6 µM | NCI-H522 56.9 µM | OVCAR-3 28.6 µM | OVCAR-4 16.4 µM | OVCAR-8 39.7 µM | RXF 393 16.4 µM | SF-539 > 100 µM | SK-MEL-2 33.7 µM | SN12C > 100 µM | SW-620 41.9 µM | UACC-257 > 100 µM

CC(C)(C)OC(=O)CC(NC(=O)OC(C)(C)C)C(=O)N[C@@H]1CCCC[C@H]1C(=O)OCc1ccccc1 (some centres not stated)
inactive: A549 25.2 µM | CCRF-CEM 20.8 µM | COLO 205 19.3 µM | HL-60 24.7 µM | LOX IMVI 29 µM | MDA-MB-435 29.6 µM | NCI-H226 26.4 µM | NCI-H23 29.3 µM | NCI-H522 > 10 µM | OVCAR-3 28.9 µM | OVCAR-4 45.2 µM | OVCAR-8 28.8 µM | RPMI-8226 20.5 µM | RXF 393 > 100 µM | SF-539 24.5 µM | SK-MEL-2 32.3 µM | SN12C 18.2 µM | SW-620 37.5 µM | UACC-257 30.2 µM

Cc1cccc2c1NC(c1c(C)[nH]c3ccccc13)C2 (configuration not stated)
inactive: A498 > 100 µM | A549 > 100 µM | CCRF-CEM 57.7 µM | COLO 205 56 µM | HL-60 50.1 µM | LOX IMVI 80 µM | NCI-H226 80.5 µM | NCI-H23 > 100 µM | NCI-H522 > 100 µM | OVCAR-3 86.7 µM | OVCAR-8 > 100 µM | RPMI-8226 > 100 µM | RXF 393 56.4 µM | SF-539 > 100 µM | SK-MEL-2 > 100 µM | SN12C > 100 µM | SW-620 68.2 µM | UACC-257 > 100 µM

CCOP(=O)(OCC)OC1CC(n2cnc3c(N(CC)CC)ncnc32)OC1CO[Si](C)(C)C(C)(C)C (configuration not stated)
inactive: A549 15.7 µM | CCRF-CEM 14.4 µM | COLO 205 18.5 µM | HL-60 65 µM | LOX IMVI 16.2 µM | MDA-MB-435 17.3 µM | NCI-H226 19.2 µM | NCI-H23 17 µM | NCI-H522 14.3 µM | OVCAR-3 20.3 µM | OVCAR-4 14.1 µM | OVCAR-8 21.1 µM | RPMI-8226 28 µM | RXF 393 16.9 µM | SF-539 19.1 µM | SK-MEL-2 21.7 µM | SN12C 19.4 µM | SW-620 16.2 µM | UACC-257 16.5 µM

C=C1c2[nH]c3c([N+](=O)[O-])c(OC)ccc3c2CCN1C(C)=O
inactive: A498 > 100 µM | A549 > 100 µM | CCRF-CEM > 100 µM | COLO 205 > 100 µM | HL-60 > 100 µM | LOX IMVI > 100 µM | NCI-H226 > 100 µM | NCI-H23 > 100 µM | NCI-H522 > 100 µM | OVCAR-3 > 100 µM | OVCAR-4 > 100 µM | OVCAR-8 > 100 µM | RPMI-8226 > 100 µM | RXF 393 > 100 µM | SF-539 > 100 µM | SK-MEL-2 > 100 µM | SN12C > 100 µM | SW-620 > 100 µM | UACC-257 > 100 µM

CC(C)(C)C1=CC(=N/N=c2\scc(-c3ccccc3)n2-c2ccccc2)C=C(C(C)(C)C)C1=O
inactive: A498 > 100 µM | A549 > 100 µM | CCRF-CEM > 100 µM | COLO 205 > 100 µM | HL-60 > 100 µM | LOX IMVI > 100 µM | NCI-H226 > 100 µM | NCI-H23 > 100 µM | NCI-H522 > 100 µM | OVCAR-3 > 100 µM | OVCAR-4 > 100 µM | OVCAR-8 > 100 µM | RPMI-8226 > 100 µM | RXF 393 > 100 µM | SF-539 > 100 µM | SK-MEL-2 > 100 µM | SN12C > 100 µM | SW-620 86.5 µM | UACC-257 > 100 µM

O=C(NNc1ccccc1)/C(=C/c1ccc2c(c1)OCO2)NC(=O)c1ccccc1
inactive: A498 > 100 µM | A549 > 100 µM | CCRF-CEM 31 µM | COLO 205 40.1 µM | HL-60 > 100 µM | LOX IMVI 41.6 µM | NCI-H226 96.2 µM | NCI-H23 > 100 µM | NCI-H522 33.3 µM | OVCAR-3 69 µM | OVCAR-4 66.2 µM | OVCAR-8 > 100 µM | RPMI-8226 52.2 µM | RXF 393 > 100 µM | SF-539 > 100 µM | SK-MEL-2 > 100 µM | SN12C > 100 µM | UACC-257 > 100 µM

COc1ccc(-c2cc(=O)c3c(OC)cccc3o2)c(OC)c1OC
inactive: A498 > 100 µM | A549 > 100 µM | CCRF-CEM > 100 µM | COLO 205 > 100 µM | HL-60 63.1 µM | LOX IMVI > 100 µM | NCI-H226 > 100 µM | NCI-H23 > 100 µM | NCI-H522 > 100 µM | OVCAR-3 > 100 µM | OVCAR-4 > 100 µM | OVCAR-8 > 100 µM | RPMI-8226 80.5 µM | RXF 393 39 µM | SF-539 > 100 µM | SK-MEL-2 > 100 µM | SN12C > 100 µM | SW-620 > 100 µM | UACC-257 > 100 µM

O=C1Cc2c([nH]c3ccccc23)-c2ccccc2N1 [PAULLONE]
inactive: A498 67.8 µM | A549 36.4 µM | CCRF-CEM 22.2 µM | COLO 205 22 µM | HL-60 15.4 µM | LOX IMVI 16.5 µM | NCI-H226 27.8 µM | NCI-H23 16 µM | NCI-H522 17.3 µM | OVCAR-3 23.1 µM | OVCAR-4 43.1 µM | OVCAR-8 40.1 µM | RPMI-8226 20.2 µM | RXF 393 16.1 µM | SF-539 18.3 µM | SK-MEL-2 43.3 µM | SN12C 38.2 µM | SW-620 28.2 µM | UACC-257 59.2 µM
